Results reported in patent US6998249B1, “Toxicity screening method” (priority 1999, dated 2006).
Like-named read-outs stand apart in the source and are kept apart here.

Assays:
liver [1] = conditions: humans; cited from earlier work
H4IIE cells [2] = assay: MTT mitochondrial function assay; assay type: cell-based, rat
Description: (§1) (3-(4,5-dimethylthiazol-2-yl)-2,5-diphenyl-tetrazolium bromide (MTT). After the media was removed from a plate for GST analysis, the cells remaining in each well were evaluated for their ability to reduce the tetrazolium dye to formazan via mitochondrial dehydrogenase activity. An MTT stock solution was prepared in Earl's Buffered Salt Solution (EBSS) to a final concentration of 5.0 mg/ml. This stock was diluted 10-fold with complete media (0.5 mg/ml) just prior to use and warmed to 37° C. in a water bath. In some instances the MTT powder may be added directly to complete medium to give a final concentration of 0.5-mg/ml. Once the media was removed from all wells 200 microliter, of the 0.5 mg/ml MTT solution was added to each well and the plate was allowed to incubate at 37° C. for 3-4 hours. Color development is linear over this time.
(§2) After the 3-4 hour incubation, all media was removed and the purple formazan product was extracted by adding 200 microliters, of anhydrous isopropanol. The plates were covered with foil and placed on an orbital shaker for 30 min at room temperature. Each well was aspirated with a multi-channel pipette to insure solubilization of the formzan dye and then the plate was centrifuged at 3000 rpms in a Beckman Allegra 6R centrifuge equipped with a GH3.8 rotor to remove insoluble cellular debris. Analyses were performed by transferring 100 microliters, of supernatant to a clean 96-well plate and then reading the sample absorbance at 570 nm and the reference absorbance at 650 nm with a Packard scanning spectrophotometer.
(§3) At the end of the 24 hour exposure period the media was removed and the remaining attached cells were assayed for mitochondrial function. […] Percent control values were determined by dividing the mean absorbance of the treatment group by the mean absorbance of the control group and multiplying by 100.

[3] = MTT mitochondrial function assay; assay type: cell-based, rat; conditions: rat, H4IIE rat hepatoma cells; 24 hour exposure; read-out: TC50 for MTT
Description: as §1, §2, §3

H4IIE cells [4] = assay: ATP assay (ATP-Lite); assay type: cell-based, rat
Description: Cellular Adenosine triphosphate (ATP) was determined with the ATP-Lite kit from Packard Instruments according to the manufacturer's instructions. This assay is based on a reaction between ATP+D-luciferin+oxygen catalyzed by luciferase to yield Oxyluciferin+AMP+PPi+CO2+light. The emitted light is proportional to the amount of ATP present. Rather than a “flash” type signal which has a very short half-life, this assay utilizes a “glow” technology that extends the signal half-life to 5 hours. In addition, a unique cell lysis reagent inhibits endogenous ATPases and therefore stabilizes cellular ATP by preventing its degradation to ADP.. ATP is present in all living cells and declines rapidly upon cell death. In addition, this assay in combination with the MTT assay provides an indicator of mitochondrial activity and the energy status of the cell.
Changes in ATP may be expressed as a percent change relative to controls by dividing the mean treatment luminescence values by the control values and multiplying by 100. An actual amount of ATP can also be determined by including an ATP calibration curve in the assay and then converting the luminescence response to an ATP concentration with the regression coefficients. Finally, it is possible to estimate the amount of ATP produced per cell, by dividing the pmol ATP data by cell number. Typically, cells try to maintain a stable level of ATP and therefore this parameter is not routinely calculated unless information on the stability of the ATP pool is desired.

H4IIE cells [5] = assay: Cluster Analysis Toxicity Screening (CATS), combined cell number, GST, MTT and ATP assays; assay type: cell-based
Text: (§4) The test compounds were received pre-weighed into glass vials. The preparation of 20 millimolar stock solutions was accomplished by adding a sufficient amount of dimethylsulfoxide (DMSO) directly into the vials. These stocks were used to prepare 200 micromolar stock solutions in DMSO. Both the 20 millimolar and 200 micromolar, stocks were used to prepare dosing solutions of 0.05, 0.1, 1.0, 5.0, 10.0, 20.0, 50.0, 100, and 300 micromolar in culture media with a final DMSO concentration of 0.5%. The stocks and dosing solutions were prepared on the day prior to dosing. The solutions were wrapped in foil and stored at 4° C. until the next morning.
(§5) Negative controls of media plus DMSO (0.5%) were included with and without cells. A digitonin (1 mM) treated group was included as a positive control for complete cell death.
(§6) Rat hepatoma derived H4IIE cells were used as the test system. The cells were obtained from ATCC (# CRL-1548) and subcultured in the laboratory. The culture medium used for these cells was Eagle's Minimum Essential Medium (MEM) with 10% Fetal Bovine Serum (FBS) and 10% calf serum. Certified FBS and calf serum were from Gibco Life Technologies.
(§7) 96-well plates were seeded with […] in 200 microliters of media 48 hour prior to dosing. On the morning of the third day after seeding, the test compounds were added to the plates in a 200 microliter volume of medium (DMSO=0.5%).
(§8) In this Example, ketoconazole was used as the test drug. Rat hepatoma cells were seeded into 96-well culture plates and allowed to establish growth for 48 hours. Following this growth phase, the cells were treated with 0, 0.05, 0.1, 1, 5, 10, 20, 50, 100, and 300 micromolar of ketoconazole in growth medium and 0.5% DMSO. […]

[6] = as above; assay type: cell-based; conditions: rat, 24 hour exposure
Text: as §4, §5, §6, §7, §8

isolated mitochondria = conditions: cited from earlier work
liver [7] = conditions: rats; cited from earlier work
H4IIE cells [8] = assay: Cell proliferation (CYQUANT) cell number assay; assay type: cell-based, rat
Description: Cell number in each well was determined with the CYQUANT® cell proliferation kit from Molecular Probes. This assay is based on a DNA-specific binding dye that fluoresces upon interaction with DNA. Conversion to cell number is achieved by comparing sample fluorescence units to a standard curve based on fluorescence units/cell. The assay was performed essentially as described by the manufacturer with the following exceptions: The digitonin (1 mM) or Triton X 100 (1%) was added to the lysis buffer. The lysis buffer was added to the plates immediately after removing the plates from the −80° C. freezer. The plates were shaken for 20 min prior to reading the fluorescence.
Cell number was determined by establishing a calibration curve. In order to obtain fluorescence units (FU) per cell 1×10^6 cells were placed in a tube and centrifuged to a pellet. The pellet was then resuspended in 1 milliliters of a cell lysis buffer containing the DNA binding dye. Thus, one million cells in 1000 milliliters yields a relationship of 1000 cells per microliter of suspension. This provides FU/cell. Cell number for samples was determined by applying the FU obtained to the calibration curve. The percent change relative to controls was determined by dividing the treatment cell number by the control cell number and multiplying by 100.

H4IIE cells [9] = conditions: rat, 24 h
Description: (§9) Measurements of A-GST leakage from cultured cells into the media can be used to assess membrane integrity. This assay is specific for the alpha form of GST that exists at high concentrations in the cytosol of hepatocytes. An ELISA kit purchased from Biotrin Inc. was used to measure GST.
(§10) On the morning after dosing the cells (approximately 24 hours) the media covering the cells in each well was removed and placed into new 96-well plates with appropriate labeling. These media plates were stored at −80° C. until needed for analysis.
(§11) Leakage of the GST enzyme is determined by collecting the media in which the cells were exposed to the test compound at the end of the 24 hour exposure period. Thus, GST values represent total GST lost over the exposure period. The control for 100% dead or maximum GST release is based on cells treated with 1 mM digitonin at T0. Percent dead cells relative to digitonin treated cells was determined and then subtracted from 100 to yield the percent live cells.

H4IIE cells [10] = assay: Glutathione S-transferase (GST) leakage assay (membrane integrity); conditions: 6 hour exposure
Description: as §9, §10, §11

For `CC(=O)N1CCN(c2ccc(OCC3COC(Cn4ccnc4)(c4ccc(Cl)cc4Cl)O3)cc2)CC1` (centres unmarked) [ketoconazole], the “sustained plasma concentration resulting in liver toxicity” value (liver [1]) is given as 30 µM, the “concentration of early toxic effects in MTT assay” value (H4IIE cells [2]; 24 hour exposure) is given as “below 20 micromolar” and the “effect on MTT” value (H4IIE cells [2]; 24 hour exposure) is given as “reduced”. The CC50 at 24 h [3] was 70 µM, the “effect on ATP” value (H4IIE cells [4]) was “reduced” and the “concentration of early toxic effects in ATP assay” value (H4IIE cells [4]; rat, 24 h) was “below 20 micromolar”. The “influence of final DMSO concentration on toxicity” value (H4IIE cells [5]) was “No significant differences in toxicity”, the “Ctox, estimated plasma concentration that would produce toxicity” value (H4IIE cells [5]; rat, 24 h) was 20 µM and the “change of TC50 with exposure time” value (H4IIE cells [5]; rat, 72 h) was “largest shift in TC50 values occurred between 24 and 48 hours”. It also gave a CC50 at 24 h ([6]; cell number, ATP, GST, read-out: TC50 for all other endpoints (than MTT)) greater than 100 µM, a CC50 at 24 h ([6]; H4IIE cells, all parameters, read-out: TC50 values) of no less than 50 µM and a CC50 at 24 h ([6]; H4IIE cells, cell number, GST leakage, MTT, ATP, read-out: TC50, all parameters measured) of no less than 50 µM. For the same compound, the “effect on State III respiration” value (isolated mitochondria) was “direct inhibition”, the “sustained plasma concentration producing hepatic damage” value (liver [7]) was 60 µM and the “effect on cell number” value (H4IIE cells [8]; 24 hour exposure) was “dose-related reduction in cell number”. For the same compound, the “concentrations at which not toxic to cells by GST leakage” value (H4IIE cells [9]) was “below 300 micromolar”.

For `CC[C@H]1/C=C/C=C/C[C@@H](C)[C@H](O)[C@@](C)(O)C(=O)[C@@H](C)[C@H](O)[C@@H](C)C(=O)[C@@H](C)[C@H](O)[C@@H](C)/C=C/C(=O)O[C@@H]2[C@H](C)[C@H](CC1)O[C@]1(CC[C@H](C)[C@H](C[C@@H](C)O)O1)[C@H]2C` [oligomycin], the “effect on MTT” value (H4IIE cells [2]; 6 hour exposure) was “significantly reduced”, the “effect on ATP” value (H4IIE cells [4]; 6 hour exposure) was “completely depleted” and the “effect on cell number” value (H4IIE cells [8]; 6 hour exposure) was “unaffected”. The “effect on GST leakage” value (H4IIE cells [10]) was “unaffected”.

For `C[S+](C)[O-]` [DMSO, dimethylsulfoxide], the “concentrations with no effects on cell proliferation, MTT and GST” value (H4IIE cells [5]; rat) was “below 2%”.

For `O=C(N[C@H](CO)[C@H](O)c1ccc([N+](=O)[O-])cc1)C(Cl)Cl` [chloramphenical], the “change of TC50 with exposure time” value (H4IIE cells [5]; time course over a 72 hour exposure period, H4IIE cells) was “largest shift in TC50 values occurred between 24 and 48 hours”.

In the case of `C[C@@H]1[C@H](O)[C@@H](C)/C=C/C=C/C=C/C=C/C=C/C=C/C=C/[C@H](O[C@@H]2O[C@H](C)[C@@H](O)[C@H](N)[C@@H]2O)C[C@@H]2O[C@](O)(C[C@@H](O)C[C@@H](O)[C@H](O)CC[C@@H](O)C[C@@H](O)CC(=O)O[C@H]1C)C[C@H](O)[C@H]2C(=O)O` [amphotericin], the “influence of final DMSO concentration on toxicity” value (H4IIE cells [5]) is reported as “No significant differences in toxicity”.
